Experimental data: US20210113501A1, “METHOD OF ADMINISTERING BETA-HYDROXY-BETA-METHYLBUTYRATE (HMB)” (Metabolic Technologies, Inc., priority 2009, published 2021)

What was measured:
[1] = system: protein degradation in muscle; experiment: Urinary 3-methylhistidine to creatinine ratio after an acute exercise bout; assay type: in vivo, human
Method: Subjects: We conducted a study at the Iowa State University Health and Human Performance Laboratory; this study was approved by the Iowa State University Institutional Review Board, and was registered at ClinicalTrials.gov (NCT01150526). We recruited 12 men and 13 women between the ages of 20 and 36 from the Iowa State University community and surrounding area.
Treatments: The experimental design is depicted in FIG. 8.
Five treatments were administered as follows: Treatment 1: Placebo. This group received a placebo capsule and a placebo syringe dosage at each dosage administration. Treatment 2: CaHMB pre-exercise. This group received a CaHMB capsule and a placebo syringe dosage 30 min prior to the acute exercise bout. The remaining additional dosages during the study consisted of one placebo capsule and one placebo syringe dosage. Treatment 3: HMB-acid gel pre-exercise. This group received a placebo capsule and a syringe dosage of HMB-acid gel 30 min prior to the acute exercise bout. The remaining additional dosages during the study consisted of one placebo capsule and one placebo syringe dosage. Treatment 4: CaHMB pre- and post-exercise. This group received a CaHMB capsule and a placebo syringe dosage at all administration times during the study. Treatment 5: HMB-acid gel pre- and post-exercise. This group received a syringe dosage of HMB-acid gel and one placebo capsule at all administration times during the study.
To blind the treatments to both the researchers and subjects, each subject took a capsule and syringe dosage of supplement at each administration. The capsules contained either one gram of calcium lactate (Placebo) or one gram of calcium β-hydroxy-β-methylbutryate (CaHMB). The syringe dosages were formulated to be similar in taste and appearance and contained either 0.8 g of corn syrup (Placebo) or 0.8 g of β-hydroxy-β-methylbutryate free acid, the same amount of HMB as in the capsule dosage. The 3 daily doses provided the same total HMB dosage (2.4 g as calcium HMB in the capsules or 2.4 g as HMB free acid in the syringes).
Eccentric Exercise Bout: Subjects refrained from vigorous exercise for three days before reporting to the laboratory. All subjects were studied after an overnight fast. […] Subjects then consumed their assigned supplement and 30 minutes later the eccentric exercise session was performed. The exercise consisted of 50 maximal effort contractions of knee extensors while attempting to resist the Biodex lever arm as it moves the knee joint from full extension to 90 degrees flexion; this is similar to letting a heavy weight down slowly while in a seated position. Each contraction lasted about 2 seconds and 12 seconds were allowed between contractions. This protocol was performed on the right leg followed by the left leg. The subjects received 2 more daily dosages of treatment (placebo or HMB) with instructions to take the dosages at lunch and dinner. For the next 4 days the subjects returned to the laboratory fasted each morning, had blood taken and urine collected and then consumed the morning dosage of their supplement. The subjects were again given the 2 remaining daily supplement dosages with instructions to take them at lunch and dinner.
Serum and Urine Samples: A fasting blood sample was taken from a superficial forearm vein each morning when the subjects reported to the laboratory for testing. Additionally a clean catch urine sample was collected at this time. Serum CPK was analyzed by a commercial laboratory (Quest Diagnostics, Madison N.J.). Urine 3-Methylhistidine (3MH) was analyzed by a previously published GC/MS method (9). Urinary creatinine was analyzed by colorimetric assay (Cayman Chemical Company, Ann Arbor, Mich.). The urinary 3MH data was normalized to urinary creatinine and expressed as 3MH:creatinine ratio, μmol:mg.
Statistics: Data were analyzed using the mixed model procedure in Statistical Analysis System for Windows (Release 9.1.3, SAS Institute, Cary, N.C.). […]

[2] = cited from earlier work

Compound: CC(C)(O)CC(=O)[O-].CC(C)(O)CC(=O)[O-].[Ca+2] [CaHMB, calcium β-hydroxy-β-methylbutryate, reference compound]
- 3MH:Cr ([1]; Baseline, dosed pre- and post exercise (Treatments 4, 5)): 0.205 ± 0.025 µmol/mg
- 3MH:Cr ([1]; Baseline, dosed pre-exercise only (Treatments 2, 3)): 0.164 ± 0.037 µmol/mg
- 3MH:Cr ([1]; at 24 h, dosed pre- and post exercise (Treatments 4, 5)): 0.203 ± 0.039 µmol/mg
- 3MH:Cr ([1]; at 24 h, dosed pre-exercise only (Treatments 2, 3)): 0.190 ± 0.027 µmol/mg
- 3MH:Cr ([1]; at 48 h, dosed pre- and post exercise (Treatments 4, 5)): 0.220 ± 0.027 µmol/mg
- 3MH:Cr ([1]; at 48 h, dosed pre-exercise only (Treatments 2, 3)): 0.240 ± 0.052 µmol/mg
- 3MH:Cr ([1]; at 72 h, dosed pre- and post exercise (Treatments 4, 5)): 0.231 ± 0.037 µmol/mg
- 3MH:Cr ([1]; at 72 h, dosed pre-exercise only (Treatments 2, 3)): 0.204 ± 0.058 µmol/mg
- 3MH:Cr ([1]; at 96 h, dosed pre- and post exercise (Treatments 4, 5)): 0.269 ± 0.038 µmol/mg
- 3MH:Cr ([1]; at 96 h, dosed pre-exercise only (Treatments 2, 3)): 0.187 ± 0.029 µmol/mg
- time of peak plasma HMB levels after ingestion ([2]; depending upon the dosage): 60 to 120 min
- plasma peak levels, 3 grams versus 1 gram dose ([2]; oral, Vukovich et al): 3 times
- time to peak plasma levels ([2]; typical 1 gram dosage): 2 h
